pIC50: −log10 of the molar value.
Key:
[1] = target: NAMPT (human, recombinant, C-terminally His-tagged) (Homo sapiens, UniProt P43490); test: Time-Resolved Fluorescence Resonance Energy Transfer (TR-FRET) Binding Assay of NAMPT; conditions: 6.8 nM NAMPT, 200 nM probe, equilibrated 3 hours, absence of substrates
In short: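 Recombinant C-terminally His-tagged human NAMPT (6.8 nM) incubated 3 h at room temperature with 200 nM Oregon Green 488–labelled nicotinamide-competitive probe and 1 nM Tb-anti-His antibody in HEPES pH 7.5, 2% DMSO. TR-FRET ratio Em520/Em495 normalized to controls; IC50 from four-parameter logistic fit.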

NAMPT = NAMPT (Homo sapiens, UniProt P43490); test: Time-Resolved Fluorescence Resonance Energy Transfer (TR-FRET) Binding Assay of NAMPT with PRPP; conditions: 2 nM NAMPT, 2 nM probe, 200 uM PRPP and 2.5 mM ATP, equilibrated 16 hours
In short: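 Final mix: 2 nM NAMPT, 2 nM probe, 1 nM Tb-anti-His antibody, 200 uM PRPP, 2.5 mM ATP, 2% DMSO in 1× assay buffer. Equilibrated 16 hours before TR-FRET read, allowing possible enzymatic modification of compounds.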

Chain of NAMPT (human, recombinant, C-terminally His-tagged) (P43490 whole entry): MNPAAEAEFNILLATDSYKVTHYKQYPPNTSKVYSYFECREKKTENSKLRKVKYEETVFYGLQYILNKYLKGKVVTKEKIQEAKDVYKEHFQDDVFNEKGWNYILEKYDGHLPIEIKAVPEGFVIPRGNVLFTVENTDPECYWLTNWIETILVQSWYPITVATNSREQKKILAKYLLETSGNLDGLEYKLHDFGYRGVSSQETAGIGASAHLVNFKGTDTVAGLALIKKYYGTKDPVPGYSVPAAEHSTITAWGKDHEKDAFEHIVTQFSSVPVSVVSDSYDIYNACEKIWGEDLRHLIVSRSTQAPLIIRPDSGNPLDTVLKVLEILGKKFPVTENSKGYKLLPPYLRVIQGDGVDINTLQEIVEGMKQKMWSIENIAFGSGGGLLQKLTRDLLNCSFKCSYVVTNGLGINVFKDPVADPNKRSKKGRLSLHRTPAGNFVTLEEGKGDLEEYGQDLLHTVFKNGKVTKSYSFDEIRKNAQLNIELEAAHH
Chain of NAMPT (P43490 whole entry): as above

| Structure (SMILES) | pIC50 [1] | pIC50 (NAMPT) |
| --- | --- | --- |
| Cc1ccc(C(=O)N2CCC(c3ccc(NC(=O)C4CN(c5cccnc5C)C4)cc3)CC2)s1 [Example 186, 1-(2-methylpyridin-3-yl)-N-(4-{1-[(5-methylthiophen-2-yl)carbonyl]piperidin-4-yl}phenyl)azetidine-3-carboxamide] | 7.00 | 6.93 |
| O=C(Nc1ccc(C2CCN(C(=O)C3CCCCC3)CC2)cc1)C1CN(c2cccnn2)C1 [Example 339, N-{4-[1-(cyclohexylcarbonyl)piperidin-4-yl]phenyl}-1-(pyridazin-3-yl)azetidine-3-carboxamide] | 7.75 | 9.18 |
| O=C(Nc1ccc(OC2CCN(C(=O)c3cccc(Cl)c3)CC2)cc1)C1CN(c2cccnn2)C1 [Example 250, N-(4-{[1-(3-chlorobenzoyl)piperidin-4-yl]oxy}phenyl)-1-(pyridazin-3-yl)azetidine-3-carboxamide] | 6.97 | 9.19 |
| O=C(Nc1ccc(OC2CCN(C(=O)CC3CCOCC3)CC2)cc1)[C@H]1CCN(c2cccnc2)C1 [Example 11, (3S)-1-(pyridin-3-yl)-N-(4-{[1-(tetrahydro-2H-pyran-4-ylacetyl)piperidin-4-yl]oxy}phenyl)pyrrolidine-3-carboxamide] | 5.63 | 8.71 |
| O=C(Nc1ccc(OC2CCN(C(=O)Cc3cccc(F)c3)CC2)cc1)C1CN(c2ccnnc2)C1 [Example 288, N-[4-({1-[(3-fluorophenyl)acetyl]piperidin-4-yl}oxy)phenyl]-1-(pyridazin-4-yl)azetidine-3-carboxamide] | 7.35 | 7.71 |
| O=C(Nc1ccc(OC2CCN(C(=O)c3ccsc3)CC2)cc1)C1CN(c2cccnc2)C1 [Example 58, 1-(pyridin-3-yl)-N-(4-{[1-(thiophen-3-ylcarbonyl)piperidin-4-yl]oxy}phenyl)azetidine-3-carboxamide] | 7.23 | 9.17 |
| O=C(Nc1ccc(C2CCN(C(=O)Cc3ccc(Cl)cc3)CC2)cc1)C1CN(c2cccnn2)C1 [Example 370, N-(4-{1-[(4-chlorophenyl)acetyl]piperidin-4-yl}phenyl)-1-(pyridazin-3-yl)azetidine-3-carboxamide] | 7.52 | 9.26 |

Second part, the compound after the results:

| pIC50 [1] | pIC50 (NAMPT) | Structure (SMILES) |
| --- | --- | --- |
| 7.25 | 9.36 | O=C(Nc1ccc(C2CCN(C(=O)Cc3ccc(C(F)(F)F)cc3)CC2)cc1)C1CN(c2cccnn2)C1 [Example 371, 1-(pyridazin-3-yl)-N-[4-(1-{[4-(trifluoromethyl)phenyl]acetyl}piperidin-4-yl)phenyl]azetidine-3-carboxamide] |
| 6.79 | 9.24 | O=C(Nc1ccc(OC2CCN(C(=O)C3CCCO3)CC2)cc1)C1CN(c2cccnn2)C1 (centres unmarked) [Example 221, 1-(pyridazin-3-yl)-N-(4-{[1-(tetrahydrofuran-2-ylcarbonyl)piperidin-4-yl]oxy}phenyl)azetidine-3-carboxamide] |
| 5.38 | 9.53 | CC(C)Cn1cc(-c2ccc(C(=O)NC3CN(c4cccnn4)C3)o2)cn1 [Example 309, 5-[1-(2-methylpropyl)-1H-pyrazol-4-yl]-N-[1-(pyridazin-3-yl)azetidin-3-yl]furan-2-carboxamide] |
| 6.95 | 7.26 | CC(C)C(=O)N1CCC(Oc2ccc(NC(=O)C3CN(c4ccnnc4)C3)cc2)CC1 [Example 294, N-(4-{[1-(2-methylpropanoyl)piperidin-4-yl]oxy}phenyl)-1-(pyridazin-4-yl)azetidine-3-carboxamide] |
| 6.58 | 9.20 | CCC(CC)CN1CCC(Oc2ccc(NC(=O)C3CN(c4cccnc4)C3)cc2)CC1 [Example 78, N-(4-{[1-(2-ethylbutyl)piperidin-4-yl]oxy}phenyl)-1-(pyridin-3-yl)azetidine-3-carboxamide] |
| 6.80 | 9.66 | O=C1CC[C@H](C(=O)N2CCC(c3ccc(NC(=O)C4CN(c5cccnc5)C4)cc3)CC2)N1 [Example 106, N-{4-[1-(5-oxo-D-prolyl)piperidin-4-yl]phenyl}-1-(pyridin-3-yl)azetidine-3-carboxamide] |
